From patent US7625936B2, “Mitotic kinesin inhibitors” (Merck & Co. Inc., priority 2005, dated 2009)

Target: T1, human KSP motor domain (KSP(367H)) (Homo sapiens, UniProt P52732)
T1 construct: were used to amplify the motor domain and the neck linker region; made in house; host or cells: E. coli BL21 (DE3), vector pRSETa
T1 sequence (P52732 1-367): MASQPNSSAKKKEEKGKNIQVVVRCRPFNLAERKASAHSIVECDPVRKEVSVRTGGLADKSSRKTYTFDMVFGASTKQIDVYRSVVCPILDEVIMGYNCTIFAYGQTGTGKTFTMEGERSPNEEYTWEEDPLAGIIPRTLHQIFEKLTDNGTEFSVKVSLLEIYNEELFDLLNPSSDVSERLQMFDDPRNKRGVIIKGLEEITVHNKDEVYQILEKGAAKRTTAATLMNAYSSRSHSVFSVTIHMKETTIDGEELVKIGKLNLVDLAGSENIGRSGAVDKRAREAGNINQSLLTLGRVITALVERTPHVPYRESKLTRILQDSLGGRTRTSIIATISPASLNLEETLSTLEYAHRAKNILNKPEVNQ
Test: Kinesin ATPase in vitro assay
Format: biochemical
Settings: kinesin motor domain incubated with microtubules, 1 mM ATP and compound at 23° C.; free phosphate by quinaldine red/ammonium molybdate, absorbance 540 nm
From the text: I. Kinesin ATPase In Vitro Assay
Cloning and Expression of Human Poly-Histidine Tagged KSP Motor Domain (KSP(367H))
Plasmids for the expression of the human KSP motor domain construct were cloned by PCR using a pBluescript full length human KSP construct (Blangy et al., Cell, vol. 83, pp 1159-1169, 1995) as a template. The N-terminal primer 5′-[…] (SEQ.ID.NO.: 1) and the C-terminal primer 5′-[…] […] (SEQ.ID.NO.: 2)were used to amplify the motor domain and the neck linker region. The PCR products were digested with AseI and XhoI, ligated into the NdeI/XhoI digestion product of pRSETa (Invitrogen) and transformed into E. coli BL21 (DE3).
Cells were grown at 37° C. to an OD600 of 0.5. […]
The kinesin motor domain is incubated with microtubules, 1 mM ATP (1:1 MgCl2: Na-ATP), and compound at 23° C. in buffer containing 80 mM K-HEPES (pH 7.0), 1 mM EGTA, 1 mM DTT, 1 mM MgCl2, and 50 mM KCl. […] Free phosphate from the ATP hydrolysis reaction is measured via a quinaldine red/ammonium molybdate assay by adding 150 μl of quench C buffer containing a 2:1 ratio of quench A:quench B. Quench A contains 0.1 mg/ml quinaldine red and 0.14% polyvinyl alcohol; quench B contains 12.3 mM ammonium molybdate tetrahydrate in 1.15 M sulfuric acid. The reaction is incubated for 10 minutes at 23° C., and the absorbance of the phospho-molybdate complex is measured at 540 nm.

Row | SMILES | IC50
1 | CC(=O)N1N=C(c2cc(F)ccc2F)CC1(CC[Si](C)(C)O)c1ccccc1 (centres unmarked) [Compound 1-5, {2-[1-acetyl-3-(2,5-difluorophenyl)-5-phenyl-4,5-dihydro-1H-pyrazol-5-yl]ethyl}(dimethyl)silanol] | ≤ 50 µM
2 | CC(=O)N1CCN(CCC[C@@]2(c3ccccc3)CC(c3cc([Si](C)(C)C)ccc3F)=NN2C(C)=O)CC1 [Compound 3-8, 1-acetyl-4-(3-{(5S)-1-acetyl-3-[2-fluoro-5-(trimethylsilyl)phenyl]-5-phenyl-4,5-dihydro-1H-pyrazol-5-yl}propyl)piperazine] | ≤ 50 µM
